Test results published in PubChem BioAssay (NCI).
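These data come from cells grown in 96-well plates and exposed to compound for 48 hours at five concentrations. TGI: concentration producing complete growth inhibition.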

Experiments:
Experiment in all cases: inhibition of tumour cell growth, NCI panel, 48 h
786-0 renal = tested on: 786-0 renal
ACHN renal = tested on: ACHN renal
BT-549 breast = tested on: BT-549 breast
CAKI-1 renal = tested on: CAKI-1 renal
DU-145 prostate = tested on: DU-145 prostate
EKVX NSCLC = tested on: EKVX NSCLC
HCC-2998 colon = tested on: HCC-2998 colon
HOP-62 NSCLC = tested on: HOP-62 NSCLC
MDA-N = tested on: MDA-N
MOLT-4 leukemia = tested on: MOLT-4 leukemia
NCI-H23 lung = tested on: NCI-H23 lung
NCI-H522 lung = tested on: NCI-H522 lung
OVCAR-3 ovarian = tested on: OVCAR-3 ovarian
OVCAR-4 ovarian = tested on: OVCAR-4 ovarian
SF-295 CNS = tested on: SF-295 CNS
SF-539 CNS = tested on: SF-539 CNS
SK-MEL-2 melanoma = tested on: SK-MEL-2 melanoma
SNB-19 CNS = tested on: SNB-19 CNS
SNB-75 CNS = tested on: SNB-75 CNS
SR leukemia = tested on: SR leukemia

SMILES	TGI (786-0 renal) [µM]	TGI (ACHN renal) [µM]	TGI (BT-549 breast) [µM]	TGI (CAKI-1 renal) [µM]	TGI (DU-145 prostate) [µM]	TGI (EKVX NSCLC) [µM]	TGI (HCC-2998 colon) [µM]	TGI (HOP-62 NSCLC) [µM]	TGI (MDA-N) [µM]	TGI (MOLT-4 leukemia) [µM]	TGI (NCI-H23 lung) [µM]	TGI (NCI-H522 lung) [µM]	TGI (OVCAR-3 ovarian) [µM]	TGI (OVCAR-4 ovarian) [µM]	TGI (SF-295 CNS) [µM]	TGI (SF-539 CNS) [µM]	TGI (SK-MEL-2 melanoma) [µM]	TGI (SNB-19 CNS) [µM]	TGI (SNB-75 CNS) [µM]	TGI (SR leukemia) [µM]
Cc1nc2ccc(N=Nc3c(O)ccc4ccccc34)cc2[nH]1	54.4	> 57.2	59.7	49.8	> 100	> 83.6	> 70.5	> 100	36.7	66.2	> 100	54.3	> 56.2	35.1	> 100	> 62.3	> 76.8	> 100	> 100	55.4
C[C@@]12C[C@@H](c3ccccc3O1)N1CCSC1=N2	> 100	> 100	> 100	> 100	> 100	> 100	> 100	> 100	> 100	> 100	> 100	> 100	> 100	> 100	> 100	> 100	> 100	> 100	> 100	> 100
COc1ccc(-c2cn3c(nc4ccccc43)c(C)n2)cc1	> 100	> 100	> 100	> 100	> 100	> 100	> 100	> 100	> 100	> 100	> 100	> 100	> 100	> 100	> 100	> 100	> 100	> 100	> 86.1	> 100
CCOC(=O)c1c(N2CCOCC2)[nH]c(=O)c(C(c2c(O)c(C(=O)OCC)c(N3CCOCC3)[nH]c2=O)C(C)C)c1O	> 100	> 100	> 100	> 100	> 100	> 100	> 100	> 100	> 100	> 100	> 100	> 100	> 100	> 100	> 100	> 100	> 100	> 100	69.7	> 100
COc1ccc(Cc2cc(OC)c(OC)c(OC)c2)cc1O	> 100	> 100	> 100	> 100	> 100	> 100	> 65.9	> 49.6	> 100	> 100	> 100	5.49	> 100	> 100	> 100	0.041	> 100	> 100	> 100	> 100
CC(C)(C)C1CCC2c3c([nH]c4ccccc34)C3C(=O)N(c4cccc(Cl)c4)C(=O)C3C2C1 (stereo not given)	22	44.2	41.1	53.2	33.2	43.7	12.4	18	24.7	13	25.3	34.5	33.3	58.1	44.7	35.5	35.1	> 100	50.1	> 36
CCOC(=O)N/N=C/C1=NN(C(=O)OCC)S(=O)C1C (stereo not given)	> 100	> 100	> 100	> 100	> 100	> 100	> 100	> 100	> 100	> 100	> 100	> 100	> 100	> 100	> 100	> 100	> 100	> 100	> 100	> 100
COC(=O)C1=C(O)C(C(=O)OC)[C@]2(O)[C@H](C(=O)OC)[C@H]1C[C@@H](c1ccccc1OC)[C@H]2C(=O)OC (stereo not given in full)	20.4	21.3	11.2	17.5	26.2	29.6	22.2	39.1	4.79	25.5	14.8	5	35.4	31.3	25.6	> 23.7	20.1	19.7	> 71.3	7.04
CCOC(=O)c1ccc(-c2cccs2)n1C	> 100	> 100	> 100	> 100	> 100	> 100	> 100	> 100	> 100	> 100	> 100	> 100	> 100	> 100	> 100	> 100	> 100	> 100	> 100	> 100
COc1cccc2c3cccc(OC)c3c3[nH]cnc3c12	2.98	22.4	31.6	37.9	2.78	27.9	11.9	35.2	3.34	6.27	3.37	2.88	31.7	12	9.51	2.68	34.3	26.9	8.58	5.15
CCC(C#N)N(Cc1ccc(CN(C(=O)c2ccccc2)C(C#N)CC)cc1)C(=O)c1ccccc1 (stereo not given)	50.2	> 100	72.7	> 100	> 100	93.3	36.7	90.4	> 100	65	> 100	> 100	48.2	80.9	> 100	48.6	56.8	> 100	68.8	> 100
CCN(CC)CC(O)CNc1ccc(NCC(O)CCl)c2c1C(=O)c1ccccc1C2=O (stereo not given)	15.9	16.3	23.5	21.9	29.3	29.5	21.6	25.6	19.7	8.82	18.1	13.5	19.3	16.1	22.1	19.1	26.2	25.9	24.9	11.6
O=C(O)c1cnccc1-c1cc(=O)[nH]n1-c1ccccc1	> 100	> 100	> 100	> 100	> 100	> 100	> 63.2	> 100	> 100	> 77.6	> 100	> 100	> 100	> 100	> 63.8	> 71.2	> 100	> 100	> 100	> 100
CC(=O)OCC1OC(O[C@@H]2C[C@H]3C(C)(C)[C@H](OC(C)=O)CC[C@]3(C)[C@H]3CC[C@@]45C[C@H](O)C[C@H](C)[C@@H]4CC=C5[C@@]32C)C(O)C(O)C1O (stereo not given in full)	12.8	18.5	12.7	24.6	20.6	22	3.72	23.8	12.4	6.33	18.3	9.28	10.6	16.4	12.5	19.2	5.93	14.9	10.9	4.27
COc1ccc(Cc2nc3cc(Cl)ccc3o2)cc1	> 100	> 100	64.4	> 100	> 100	78.6	56.8	> 100	> 100	> 100	> 100	> 100	94.1	> 100	> 100	> 100	63.8	> 100	59.1	> 100
CCOC(=O)c1c(Nc2ccccc2)sc2cccnc12	48.3	> 88	58.8	98.4	> 69.7	59	77.8	> 81	58.3	55.9	67.2	> 58.4	48.7	79.9	49.9	23.6	49.5	> 86.4	59.3	59.6
C/C=C1/CN2CCC34C5=CC(=O)C(c6cc7c(cc6OC)N(C)C6=C(C(=O)OC)CC8(CC)CCCN9CCC67C98)=CC5=NC23CCC1C4C(=O)OC (stereo not given)	24.9	29.1	29.7	21.9	37.2	28.1	29.5	31.5	27	6.94	28.2	23.7	27.4	27.1	31.6	28	30.6	30.3	21.6	6.63
COc1cccc(N=N/C(=N/NC(=O)c2cc(Cl)ccc2O)c2ccc(N(CCC#N)CCC#N)cc2C)c1	> 100	> 100	> 100	> 100	> 100	> 100	92	> 100	> 100	89.6	> 100	31.9	6.48	> 100	> 100	> 100	> 100	> 100	> 100	> 100
C/C(=N/NC(=S)N1CCCCCC1)c1ccccc1O	39.3	39	> 100	> 96.2	> 69.4	> 100	> 42.1	56.7	> 100	24.4	> 100	> 53.2	> 40.9	> 33.9	> 100	28.5	> 100	> 100	69.1	4.57
C[C@]1(O)CC(=O)c2c(c(-c3ccc4cc5c(c(O)c4c3O)C(=O)C[C@@](C)(O)C5)c3cccc(O)c3c2O)C1	17.1	18	18.6	18.2	29	24.7	16.4	10.9	19.4	> 100	12.9	13.5	17.2	21.1	18.6	6.45	6.22	23.2	19.3	> 100
CC(C)Cc1ccc(C(C)/C=C2\CCC(CN3CCOCC3)C2=O)cc1 (stereo not given)	3.21	29.4	35.2	33.5	26.6	32.8	24.1	19.3	24.7	11	29.4	15.4	9.95	33.4	29.3	19.8	31.3	21.4	22.1	13.8
C/C=C/C=C/C1=NN(c2cccc(S(=O)(=O)O)c2)C2(C1)C(Cl)C(=O)N2c1nc2ccccc2s1 (stereo not given)	26.7	28.8	34	20.9	26.2	35.6	31.5	36.2	29	> 68.5	32.1	13.3	24.7	29.2	31	27.8	30.2	29.9	25.9	> 54.3
CC(=O)O[C@@]12[C@@H]3O[C@@]4(O)C[C@]5(C)[C@H]6C[C@@](C(C)C)(O[C@H]5c5ccoc5)O[C@H]1[C@]6(C4)O[C@]2(O)C(C)=CC3(C)C	> 100	> 100	> 100	> 100	> 100	> 100	> 100	> 100	> 100	> 100	> 100	> 100	> 100	> 100	> 100	> 100	> 100	> 100	> 100	> 100
